Data taken from patent US9079913B2, “Spiro-oxindole MDM2 antagonists” (The Regents of the University of Michigan, priority 2009, dated 2015).
Like-named read-outs stand apart in the source and are kept apart here. One block for each compound: values may come before it.

Columns and labels:
[1] = target: recombinant human His-tagged MDM2 protein (residues 1-118) (Homo sapiens (Human), UniProt Q00987); assay: Fluorescence-polarization MDM2 binding assay;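 further: fluorescence polarization read after three hours of incubation in potassium phosphate buffer containing bovine gamma globulin and Triton X-100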
Chain of recombinant human His-tagged MDM2 protein (residues 1-118) (Q00987 1-118): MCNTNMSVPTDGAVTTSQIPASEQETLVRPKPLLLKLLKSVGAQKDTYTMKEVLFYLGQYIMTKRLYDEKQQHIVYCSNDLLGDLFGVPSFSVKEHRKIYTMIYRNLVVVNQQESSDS

[2] = tested on: Isogenic HCT-116 colon cancer cell lines; assay: cells; assay type: cell-based;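 further: cells grown in 96-well plates in McCoy's 5A medium with 10% FBS, exposed to compound for 4 days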
Experimental: Cells were seeded in 96-well flat bottom cell culture plates at a density of 2−3×10^3 cells/well with compounds and incubated for 4 days.

[3] = tested on: cancer cell lines with wild-type p53 / mutated or deleted p53 (ATCC); assay: Cell growth assay (WST-8), other cancer cell lines; assay type: cell-based
[4] = In vitro microsomal stability, rat; assay type: in vitro ADME; settings: for Microsomal stability, % remaining: Rat Microsome, same batch
[5] = In vitro microsomal stability, human; assay type: in vitro ADME; settings: for Microsomal stability, % remaining: Human Microsome, same batch
[6] = Table 19A, FP binding assay, read-out: MDM2 IC50
[7] = Homo sapiens, HCT-116, read-out: HCT-116 (p53-/-) IC50, Table 19A, HCT-116 p53-/-, cell growth
[8] = Homo sapiens, HCT-116, read-out: HCT-116 (p53 wild-type) IC50, Table 19A, HCT-116 p53 wild-type, cell growth

Structure (SMILES): CC(C)(C)C[C@H]1N[C@@H](C(=O)NC2CCN(CC(C)(C)O)CC2)[C@H](c2cccc(Cl)c2F)[C@@]12C(=O)Nc1cc(Cl)ccc12 [MI-785]
IC50 [1, 6]: < 0.5 µM | IC50 [2, 7]: 8 µM | IC50 [2, 8]: 0.5 µM | IC50 ([3]; Homo sapiens, SJSA-1, Table 19A, SJSA-1 cells, p53 wild-type, cell growth, read-out: SJSA-1 (p53 wild-type) IC50): 0.7 µM

Structure (SMILES): CC(O)C(O)CCNC(=O)[C@@H]1N[C@H](CC(C)(C)C)[C@]2(C(=O)Nc3cc(Cl)c(F)cc32)[C@H]1c1cccc(Cl)c1 (stereo partly drawn) [MI-519-31]
IC50 ([2]; read-out: HCT-116 (p53-/-) IC50, Table 19A, HCT-116 p53-/-, cell growth): 20.1 ± 2.5 µM | IC50 ([2]; read-out: HCT-116 (p53 wild-type) IC50, Table 19A, HCT-116 p53 wild-type, cell growth): 2 ± 0.8 µM | IC50 ([3]; Table 19A, LNCAP cells, p53 wild-type, cell growth, read-out: LNCAP (p53 wild-type) IC50): 1.3 ± 0.2 µM | IC50 ([3]; Table 19A, PC-3 cells, deleted p53, cell growth, read-out: PC-3 (deleted p53) IC50): 24.7 ± 2 µM | % of compound remaining when incubated in rat liver microsomes at indicated time (min) ([4]; 0 min): 100% | % of compound remaining when incubated in rat liver microsomes with NADPH ([4]; 0 min): 100.00% | % of compound remaining when incubated in rat liver microsomes at indicated time (min) ([4]; 4 min): 80.1% | % of compound remaining when incubated in rat liver microsomes with NADPH ([4]; 5 min): 80.22% | % of compound remaining when incubated in rat liver microsomes at indicated time (min) ([4]; 6 min): 69.4% | % of compound remaining when incubated in rat liver microsomes at indicated time (min) ([4]; 10 min): 54.3% | % of compound remaining when incubated in rat liver microsomes with NADPH ([4]; 10 min): 65.69% | % of compound remaining when incubated in rat liver microsomes at indicated time (min) ([4]; 15 min): 47.7% | % of compound remaining when incubated in rat liver microsomes with NADPH ([4]; 15 min): 57.57% | % of compound remaining when incubated in rat liver microsomes at indicated time (min) ([4]; 30 min): 31% | % of compound remaining when incubated in rat liver microsomes with NADPH ([4]; 30 min): 42.91% | % of compound remaining when incubated in rat liver microsomes with NADPH ([4]; 45 min): 34.31% | % of compound remaining when incubated in rat liver microsomes with NADPH ([4]; 60 min): 32.81% | Microsomal stability, % remaining ([4]; 0 min): 100.00% | Microsomal stability, % remaining ([4]; 5 min): 80.22% | Microsomal stability, % remaining ([4]; 10 min): 65.69% | Microsomal stability, % remaining ([4]; 15 min): 57.57% | Microsomal stability, % remaining ([4]; 30 min): 42.91% | Microsomal stability, % remaining ([4]; 45 min): 34.31% | Microsomal stability, % remaining ([4]; 60 min): 32.81% | % of compound remaining when incubated in rat liver microsomes with NADPH ([4]; rat liver microsomes, NADPH, 0 min): 100.00% | % of compound remaining when incubated in rat liver microsomes with NADPH ([4]; rat liver microsomes, NADPH, 5 min): 80.22% | % of compound remaining when incubated in rat liver microsomes with NADPH ([4]; rat liver microsomes, NADPH, 10 min): 65.69% | % of compound remaining when incubated in rat liver microsomes with NADPH ([4]; rat liver microsomes, NADPH, 15 min): 57.57% | % of compound remaining when incubated in rat liver microsomes with NADPH ([4]; rat liver microsomes, NADPH, 30 min): 42.91% | % of compound remaining when incubated in rat liver microsomes with NADPH ([4]; rat liver microsomes, NADPH, 45 min): 34.31% | % of compound remaining when incubated in rat liver microsomes with NADPH ([4]; rat liver microsomes, NADPH, 60 min): 32.81% | half-life ([4]; rat, liver microsomes, rat liver microsomes with NADPH): 18.7 min | % of compound remaining when incubated in human liver microsomes with NADPH ([5]; 0 min): 100.00% | % of compound remaining when incubated in human liver microsomes with NADPH ([5]; 5 min): 78.11% | % of compound remaining when incubated in human liver microsomes with NADPH ([5]; 10 min): 58.15% | % of compound remaining when incubated in human liver microsomes with NADPH ([5]; 15 min): 45.42% | % of compound remaining when incubated in human liver microsomes with NADPH ([5]; 30 min): 22.75% | % of compound remaining when incubated in human liver microsomes with NADPH ([5]; 45 min): 13.25% | % of compound remaining when incubated in human liver microsomes with NADPH ([5]; 60 min): 8.56% | Microsomal stability, % remaining ([5]; 0 min): 100.00% | Microsomal stability, % remaining ([5]; 5 min): 78.11% | Microsomal stability, % remaining ([5]; 10 min): 58.15% | Microsomal stability, % remaining ([5]; 15 min): 45.42% | Microsomal stability, % remaining ([5]; 30 min): 22.75% | Microsomal stability, % remaining ([5]; 45 min): 13.25% | Microsomal stability, % remaining ([5]; 60 min): 8.56% | % of compound remaining when incubated in human liver microsomes with NADPH ([5]; human liver microsomes, NADPH, 0 min): 100.00% | % of compound remaining when incubated in human liver microsomes with NADPH ([5]; human liver microsomes, NADPH, 5 min): 78.11% | % of compound remaining when incubated in human liver microsomes with NADPH ([5]; human liver microsomes, NADPH, 10 min): 58.15% | % of compound remaining when incubated in human liver microsomes with NADPH ([5]; human liver microsomes, NADPH, 15 min): 45.42% | % of compound remaining when incubated in human liver microsomes with NADPH ([5]; human liver microsomes, NADPH, 30 min): 22.75% | % of compound remaining when incubated in human liver microsomes with NADPH ([5]; human liver microsomes, NADPH, 45 min): 13.25% | % of compound remaining when incubated in human liver microsomes with NADPH ([5]; human liver microsomes, NADPH, 60 min): 8.56% | half-life ([5]; human, liver microsomes, human liver microsomes with NADPH): 13 min

Structure (SMILES): CC(C)(C)C[C@H]1N[C@@H](C(=O)NCCN2CC[C@H](O)C2)[C@H](c2cccc(Cl)c2)[C@@]12C(=O)Nc1cc(Cl)c(F)cc12 [MI-519-35]
IC50 [1, 6]: < 1 µM | IC50 [2, 7]: 5.3 ± 0.6 µM | IC50 [2, 8]: 1.8 ± 0.5 µM | IC50 ([3]; Homo sapiens, LNCaP, Table 19A, LNCAP cells, p53 wild-type, cell growth, read-out: LNCAP (p53 wild-type) IC50): 1.4 ± 0.5 µM | IC50 ([3]; Homo sapiens, PC-3, Table 19A, PC-3 cells, deleted p53, cell growth, read-out: PC-3 (deleted p53) IC50): 6.7 ± 0.9 µM

Structure (SMILES): CC(C)(C)C[C@@H]1[C@]2(C(=O)Nc3cc(Cl)c(F)cc32)[C@@H](c2cccc(Cl)c2)[C@H](C(=O)NCC[C@H](O)CO)[N+]1(C)C [MI-719]
IC50 ([1]; Table 19B, read-out: Binding affinities to MDM2 protein as determined by FP based assay IC50): > 10 µM | IC50 ([2]; Homo sapiens, HCT-116, read-out: Inhibition of cell growth IC50, HCT116 p53 KO, Table 19B, HCT116 p53 KO): > 100 µM | IC50 ([2]; Homo sapiens, HCT-116, read-out: Inhibition of cell growth IC50, HCT116 p53 WT, Table 19B, HCT116 p53 WT): 58.6 ± 14.9 µM | IC50 ([3]; Homo sapiens, LNCaP, Table 19B, LNCaP cells, read-out: Inhibition of cell growth IC50, LNCaP): 51.2 µM | IC50 ([3]; Homo sapiens, PC-3, Table 19B, PC3 cells, read-out: Inhibition of cell growth IC50, PC3): > 100 µM

Structure (SMILES): CN1CC[C@@H](NC(=O)[C@@H]2N[C@H](CC(C)(C)C)[C@]3(C(=O)Nc4cc(Cl)ccc43)[C@H]2c2cccc(Cl)c2F)[C@@H](F)C1 [MI-519-58]
IC50 ([1]; Table 19D, read-out: MDM2 Binding Affinities IC50): < 1 µM | IC50 ([2]; Homo sapiens, HCT-116, read-out: HCT116p53KO IC50, Table 19D, HCT116 p53KO): > 10 µM | IC50 ([2]; Homo sapiens, HCT-116, read-out: HCT116p53WT IC50, Table 19D, HCT116 p53WT): < 3 µM | IC50 ([3]; Homo sapiens, LNCaP, Table 19D, LNCaP cells, read-out: LNCaP IC50): < 3 µM | IC50 ([3]; Homo sapiens, PC-3, Table 19D, PC3 cells, read-out: PC3 IC50): > 10 µM | IC50 ([3]; Homo sapiens, Table 19D, SJSA-1 cells, unit inferred, read-out: SJSA-1): < 3 µM

IC50 [1, 6]: < 0.1 µM
Structure (SMILES): CC(C)(C)C[C@@H]1N[C@@H](C(=O)N[C@H]2C[C@@](C)(O)C2)[C@H](c2cccc(Cl)c2F)[C@]12C(=O)Nc1c2ccc(Cl)c1F
